Non-standard residues stand in square brackets, D forms with d. Residues, ends and D or L forms follow the SMILES beside them. Groups on a side chain read outwards from the residue. *: point of attachment. dPhe(4-Cl) = N[C@H](Cc1ccc(Cl)cc1)C(=O)O; NEt2 = CCN(CC)*
Legend:
[1] = system: human tumour cell lines; assay: Inhibition of colony formation (Example 18), cell line not given; type: cell-based; details: on any cell line (Table 1)
Method: (§1) The investigation gives a precise information about the cell-damaging effect of the tested substance. In the case of cytostatics the cell-damaging effect is not cell-specific. […] One part of the arrested cells again go into the cycle, the other part may perish (apoptosis). […] The investigations were carried out on MCF-7 and MDA-MB-231 human mammary carcinoma cell lines, PC3 human prostate 15 carcinoma cell line and Ishikawa human endometrium carcinoma cell line. Three hundred cells were set into Petri dishes of 3.5 cm in diameter each. The treatment was carried out once, 24 hours following the explantation, then the colonies formed were counted after 9 to 12 days.

[2] = system: MDA-MB-231 xenograft; assay: In vivo antitumour effect on MDA-MB-231 xenograft in immunosuppressed mice; parameters: species or system CBA/Ca mice
Method: (§2) The immunosuppression of mice was carried out by using the method of Steel et al. [Br. J. Cancer, 37, 224-230 (1978)]. Immunosuppression and xeno-transplantation
(§3) CBA-Ca female mice of about 6 weeks old were thymectomized and then, after one week, they were irradiated with 60Co (whole body irradiation; the lethal dose is 9.5 Gray). Within 24 hours 3 to 5 x 10^5 myelocytes were injected into the animals. Beneath the skin of the immunosuppressed mice 2 x 10^7 tumour cells or, in the case of later passages, […] were implanted. […] The treatment with steroid hormone was stopped by at least one week before beginning the investigation.
(§4) Recent investigations have begun on 28 animals bearing MCF-7 xenograft and on 28 animals bearing MDA-MB-231 xenograft. On animals bearing MCF-7 tumour the treatment was commenced in the 5th week following xeno-transplantation; the tumour volume was 205 to 225 mm^3. On animals bearing MDA-MB-231 tumour, the treatment was started in the 4th week after xeno-transplantation with a tumour volume of 140 to 150 mm^3. […] The control groups were daily treated with physiological saline s.c. (Each treated group consisting of 7 animals).
A more recent study was started on 28 animals bearing MDA-MB-231 xenograft. The treatment was begun in the 4th or 5th week following xenotransplantation. The tumour volume was 0.165 to 0.194 cm^3. […] (For treatment of the control group, see the preceding Examples). Each group consisted of 7 animals.

[3] = system: MDA-MB-231; details: MDA-MB-231; 30 µM active substance; conjugate, treated once; listed as 11. P-GFLG-GnRH-III
Method: (§5) The procedure of treatment was as follows. After trypsinization the cells, 400,000 cells of MCF-7, MDA-MB-231 human mammary carcinoma, PC3 human prostate carcinoma or Ishikawa human endometrium tumour each were passed into Petri dishes of 10 cm in diameter. Starting from the day following transfer, the cells were treated with the substances to be tested in solution prepared with the nutrient medium during the exponential growth phase. […]

[4] = system: MCF-7; details: MCF-7; 30 µM active substance; conjugate, treated once; cell count on 7th day; listed as 11. P-GFLG-GnRH-III
Method: as §5

[5] = Ovulation / cycle of female rats during prolonged treatment; type: in vivo; details: high dose of the coupled GnRH-III; three cycles observed
Source text: In 1993, researchers isolated and synthesized the Lamprey-III-GnRH decapeptide from lamprey (Petromyzon marinus) (p[…]NH2). This Lamprey-III-GnRH (herein below GnRH-III) exerts a significant tumour growth-inhibiting effect on human mammary tumour cell lines.

[6] = system: Ishikawa human endometrium carcinoma cell line; assay: Inhibition of colony formation (dose-survival relation, Example 18); type: cell-based; details: 50 µM
Method: as §1, with “In” for “The investigation gives a precise information about the cell-damaging effect of the tested substance. In”

[7] = system: PC3 human prostate carcinoma cell line; assay: as above; type: cell-based; details: 50 µM
Method: as §1, with “In” for “The investigation gives a precise information about the cell-damaging effect of the tested substance. In”

[8] = system: MCF-7 human mammary carcinoma cell line; assay: as above; type: cell-based; details: 50 µM (active substance), treated once
Method: as §1, with “In” for “The investigation gives a precise information about the cell-damaging effect of the tested substance. In”

[9] = system: PC3; assay: In vitro inhibition of cell proliferation (Example 19); type: cell-based, human; details: 30 µM, peptide alone, two treatments on days 2 and 4
Method: (§6) The procedure of treatment was as follows. After trypsinization the cells, 400,000 cells of MCF-7, MDA-MB-231 human mammary carcinoma, PC3 human prostate carcinoma or Ishikawa human endometrium tumour each were passed into Petri dishes of 10 cm in diameter. Starting from the day following transfer, the cells were treated with the substances to be tested in solution prepared with the nutrient medium during the exponential growth phase. The cultures were treated with 1 to 50 µM (calculated for the total volume of the culture) or MI-1544 GnRH antagonist, MI-1892 chicken GnRH antagonist or SJ-1004 GnRH antagonist analogues as well as synthetic lamprey GnRH-III hormone every two days and the cell count was determined on the 7th day.

[10] = system: humoral immune response; assay: Humoral immune response (antibody production of B-lymphocytes); type: in vivo; details: mice
Source text: (§7) The immunosuppressive side effect of cytostatics used in tumour therapy is commonly known. This effect can be compensated to a certain grade by various immunostimulants (endotoxin, levamisole). Polypeptides with much […] molecular weights (about 40,000 to 80,000) are also capable of protecting against immunosuppressive effect [Gaál et al: J. Biol. Resp. Modif., 5, 148-159 (1986)]. The molecular weight of the novel polyanionic P-GFLG-OH macromolecule tested by us is about 10,000, that of MI-1892 is about 2000, i.e. relatively low; therefore, their immunostimulatory activity was unexpected.

[11] = system: MXT mouse mammary tumour; assay: In vivo antitumour effect on mice bearing MXT mouse mammary tumour; parameters: species or system CBA/Ca mice
Method: The MXT mouse mammary carcinoma contains ER and PgR proteins; furthermore, it contains also GnRH receptors; therefore, this in vivo tumour model is suitable for studying both the direct and indirect effects. The treatment of mice bearing MXT mammary tumour was commenced on the day following transplantation. […] Table VI The animals were daily treated in s.c. route starting from the day following transplantation of MXT mouse mammary tumour. […] MI-1544: 75 µg/day/animal; MI-1892: 75 µg/day/animal.

[12] = system: Ishikawa; details: 30 µM, peptide alone, two treatments on days 2 and 4
Method: as §6, with “antagonist analogues as well as synthetic lamprey GnRH-III hormone every two days and the cell count was determined” left out

[13] = system: MCF-7 xenograft; assay: In vivo antitumour effect on MCF-7 xenograft in immunosuppressed mice; parameters: species or system CBA/Ca mice; details: MCF-7 xenograft; for Tumour volume as control (%): MI-1892 2 x 25 µg
Method: as §2, §3
In the case of MCF-7 tumours (xenografts) the examinations were carried out with passages being in the phase of the 37th and 38th, respectively, transplantations.
In the case of mice bearing MCF-7 xenograft, the treatment was begun in the 4th week following xeno-transplantation.
as §4

[14] = system: cellular immune response; assay: Cellular immune response (rosette formation against BRBC antigen); type: in vivo; details: mice; 100 µg/mouse
Source text: as §7

[15] = MDA-MB-231 xenograft, after 9 week treatment, 100 µg daily s.c.
[16] = Table V, treatment week 2, 1x100 µg daily s.c.
[17] = Table V, treatment week 4, 1x100 µg daily s.c.
[18] = Table V, treatment week 6, 1x100 µg daily s.c.
[19] = week 0, daily s.c., 1 x 100 µg series
[20] = week 1, daily s.c., 1 x 100 µg series
[21] = week 2, daily s.c., 1 x 100 µg series
[22] = week 3, daily s.c., 1 x 100 µg series
[23] = week 4, daily s.c., 1 x 100 µg series
[24] = week 5, daily s.c., 1 x 100 µg series
[25] = week 6, daily s.c., 1 x 100 µg series
[26] = week 7, daily s.c., 1 x 100 µg series
[27] = Table V, treatment week 4, MI-1892 2x25 µg daily s.c.
[28] = Table V, treatment week 6, MI-1892 2x25 µg, conjugates 1x50 µg daily s.c.
[29] = MXT mouse mammary tumour, Treatment weeks: 13, 1x75 µg daily s.c.
[30] = MXT mouse mammary tumour, Treatment weeks: 20, 1x75 µg daily s.c.

{Lys[n-poly(N-vinylpyrrolidone-co-maleic acid)-Gly-Phe-Leu-Gly-]}^8,-GnRH-III [P-GFLG-GnRH-III]
inhibition of colony formation [1]: ≤ 16%
animals that became tumour-free ([2]; MDA-MB-231 xenograft, 100 µg daily s.c., 6th week of treatment): 2 animals from 7
Volume (cm^3) of tumours [2, 15]: 0.613 ± 0.307 cm^3
Weight (g) of tumours [2, 15]: 0.45 ± 0.4 g
Inhibition % [2, 16]: 20%
Tumour volume as control (%) [2, 16]: 80%
Inhibition % [2, 17]: 36%
Tumour volume as control (%) [2, 17]: 64%
Inhibition % [2, 18]: 67%
Tumour volume as control (%) [2, 18]: 33%
Tumour volume (cm^3) [2, 19]: 0.17 cm^3
Tumour volume as control (%) [2, 19]: 104%
Tumour volume (cm^3) [2, 20]: 0.25 cm^3
Tumour volume as control (%) [2, 20]: 107%
Tumour volume (cm^3) [2, 21]: 0.33 cm^3
Tumour volume as control (%) [2, 21]: 80%
Tumour volume (cm^3) [2, 22]: 0.40 cm^3
Tumour volume as control (%) [2, 22]: 72%
Tumour volume (cm^3) [2, 23]: 0.41 cm^3
Tumour volume as control (%) [2, 23]: 64%
Tumour volume (cm^3) [2, 24]: 0.49 cm^3
Tumour volume as control (%) [2, 24]: 53%
Tumour volume (cm^3) [2, 25]: 0.40 cm^3
Tumour volume as control (%) [2, 25]: 32%
Tumour volume (cm^3) [2, 26]: 0.31 cm^3
Tumour volume as control (%) [2, 26]: 24%
% Inhibition of cell division (proliferation) [3]: 11%
% Inhibition of cell division (proliferation) [4]: 10%
cycle of female rats (castration effect) [5]: not influenced
% Inhibition of colony formation [6]: 15%
% Inhibition of colony formation [7]: 16%
% Inhibition of colony formation [8]: 9%

CCN(CC)C(=O)[C@H](CC(=O)N[C@@H](CC(C)C)C(=O)N[C@@H](CCC(N)=O)C(=O)N1CCC[C@H]1C(=O)N[C@H](C)C(N)=O)NC(=O)[C@H](CCCCN)NC(=O)[C@H](CO)NC(=O)[C@@H](Cc1c[nH]c2ccccc12)NC(=O)[C@@H](Cc1ccc(Cl)cc1)NC(=O)[C@@H](Cc1c[nH]c2ccccc12)NC(C)=O [MI-1892, Ac-D-Trp^1,3,D-Cpa^2,Lys^5,[β-Asp(DEA)]^6,D-Ala^10-hGnRH, reference compound] (Ac-[dW][dPhe(4-Cl)][dW]SKD([Leu-Gln-Pro-dA-NH2])-NEt2)
inhibition of proliferation [9]: 33%
increase of the humoral immune response ([10]; 50 µg/mouse): more than two-fold
increase of the humoral immune response ([10]; 100 µg/mouse): three-fold
Inhibition % [2, 27]: 24.5%
Tumour volume as control (%) [2, 27]: 75.5%
Inhibition % [2, 28]: 22%
Tumour volume as control (%) [2, 28]: 78%
Inhibition % [11, 29]: 51%
Tumour volume as control (%) [11, 29]: 49%
Inhibition % [11, 30]: 39%
Tumour volume as control (%) [11, 30]: 61%
Tumour volume (cm^3) ([11]; day 9, 75 µg/day/animal s.c.): 0.61 cm^3
Tumour volume as control (%) ([11]; day 9, 75 µg/day/animal s.c.): 86%
Tumour volume (cm^3) ([11]; day 11, 75 µg/day/animal s.c.): 1.05 cm^3
Tumour volume as control (%) ([11]; day 11, 75 µg/day/animal s.c.): 58%
Tumour volume (cm^3) ([11]; day 13, 75 µg/day/animal s.c.): 1.59 cm^3
Tumour volume as control (%) ([11]; day 13, 75 µg/day/animal s.c.): 49%
Tumour volume (cm^3) ([11]; day 17, 75 µg/day/animal s.c.): 3.17 cm^3
Tumour volume as control (%) ([11]; day 17, 75 µg/day/animal s.c.): 62%
Tumour volume (cm^3) ([11]; day 18, 75 µg/day/animal s.c.): 4.8 cm^3
Tumour volume as control (%) ([11]; day 18, 75 µg/day/animal s.c.): 64%
Tumour volume (cm^3) ([11]; day 20, 75 µg/day/animal s.c.): 5.73 cm^3
Tumour volume as control (%) ([11]; day 20, 75 µg/day/animal s.c.): 61%
Tumour volume (cm^3) ([11]; day 24, 75 µg/day/animal s.c.): 6.32 cm^3
Tumour volume as control (%) ([11]; day 24, 75 µg/day/animal s.c.): 50%
Tumour volume (cm^3) ([11]; day 26, 75 µg/day/animal s.c.): 11.30 cm^3
Tumour volume as control (%) ([11]; day 26, 75 µg/day/animal s.c.): 82%
inhibition of proliferation [12]: 14%
decrease in the tumour volume in comparison to controls ([13]; first study, end of 4th week, MI-1892 2 x 25 µg daily, conjugates 50 µg daily once): 20%
Tumour volume as control (%) ([13]; treatment week 4): 78.5%
Tumour volume as control (%) ([13]; treatment week 6, conjugates 1 x 50 µg): 79%
increase of the cellular immune response [14]: two-fold
% Inhibition of colony formation [6]: 10%
% Inhibition of colony formation [7]: 5%

Source: EP0728012B1, “NOVEL GnRH ANALOGUES WITH ANTITUMOUR EFFECTS AND PHARMACEUTICAL COMPOSITIONS THEREOF” (Lovas, Sandor, priority 1994, dated 1996)
